According to PubChem BioAssay AID330 (DTP/NCI, 2004):
Several values for one entry are separate records, joined by “and”; a condition that tells them apart may be missing. Identical values can stand only once. Inconclusive results and toxic doses are left out. Rule for the calls: active = survival T/C of 150% or more; inactive = T/C below 125% in these data. Bridge positions count the residues as written; N and C are the ends. Peptide text beside a SMILES is read from it. I, II: the chains in the order shown. * marks the point of attachment. Cbz = O=C(OCc1ccccc1)*

Tested on: P388 leukemia ip, CD2F1 mice, survival T/C
Assay: NCI In Vivo Anticancer Drug Screen. Data for tumor model P388 Leukemia (intraperitoneal) in CD2F1 (CDF1) mice
Details: endpoint: median survival time, higher = longer survival
How it was run: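 Mice carrying the transplanted tumor received test compound or vehicle. Survival was recorded in each group, and the value is the treated-group measurement divided by that of the vehicle-treated control group.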

[1] = dose: 12.5 mg/kg/injection, schedule: Q01DX005 (ip), vehicle: saline with Tween-80
[2] = dose: 25.0 mg/kg/injection, schedule: Q01DX005 (ip), vehicle: saline with Tween-80
[3] = dose: 50.0 mg/kg/injection, schedule: Q01DX005 (ip), vehicle: saline with Tween-80
[4] = dose: 50.0 mg/kg/injection, schedule: Q01DX009 (ip), vehicle: saline with Tween-80
[5] = dose: 50.0 mg/kg/injection, schedule: Q01DX009 (ip), vehicle: saline
[6] = dose: 100.0 mg/kg/injection, schedule: Q01DX009 (ip), vehicle: saline with Tween-80
[7] = dose: 100.0 mg/kg/injection, schedule: Q01DX009 (ip), vehicle: saline
[8] = dose: 25.0 mg/kg/injection, schedule: Q01DX009 (ip), vehicle: saline with Tween-80
[9] = dose: 50.0 mg/kg/injection, schedule: Q01DX009 (ip), vehicle: Klucel (hydroxypropylcellulose) (HPC)
[10] = dose: 100.0 mg/kg/injection, schedule: Q01DX009 (ip), vehicle: Klucel (hydroxypropylcellulose) (HPC)
[11] = dose: 200.0 mg/kg/injection, schedule: Q01DX009 (ip), vehicle: Klucel (hydroxypropylcellulose) (HPC)
[12] = dose: 50.0 mg/kg/injection, schedule: Q01DX005 (ip), vehicle: saline
[13] = dose: 60.0 mg/kg/injection, schedule: Q01DX005 (ip), vehicle: saline
[14] = dose: 100.0 mg/kg/injection, schedule: Q01DX005 (ip), vehicle: saline
[15] = dose: 120.0 mg/kg/injection, schedule: Q01DX005 (ip), vehicle: saline
[16] = dose: 200.0 mg/kg/injection, schedule: Q01DX005 (ip), vehicle: saline
[17] = dose: 240.0 mg/kg/injection, schedule: Q01DX005 (ip), vehicle: saline
[18] = dose: 100.0 mg/kg/injection, schedule: Q01DX005 (ip), vehicle: saline with Tween-80
[19] = dose: 200.0 mg/kg/injection, schedule: Q01DX005 (ip), vehicle: saline with Tween-80
[20] = dose: 60.0 mg/kg/injection, schedule: Q01DX005 (ip), vehicle: saline with Tween-80
[21] = dose: 120.0 mg/kg/injection, schedule: Q01DX005 (ip), vehicle: saline with Tween-80
[22] = dose: 200.0 mg/kg/injection, schedule: Q01DX005 (ip), vehicle: Klucel (hydroxypropylcellulose) (HPC)
[23] = dose: 50.0 mg/kg/injection, schedule: Q01DX005 (ip), vehicle: Klucel (hydroxypropylcellulose) (HPC)
[24] = dose: 100.0 mg/kg/injection, schedule: Q01DX005 (ip), vehicle: Klucel (hydroxypropylcellulose) (HPC)
[25] = dose: 200.0 mg/kg/injection, schedule: Q01DX009 (ip), vehicle: saline

Measured: T/C

COC1CCCC2OC3(OC)C(OC)CCCC3OC12OC (configuration not stated)
inactive: dose: 50.0 mg/kg/injection, schedule: Q04DX003 (ip), vehicle: Klucel (hydroxypropylcellulose) (HPC) 100 % of control | dose: 100.0 mg/kg/injection, schedule: Q04DX003 (ip), vehicle: Klucel (hydroxypropylcellulose) (HPC) 97 % of control | dose: 200.0 mg/kg/injection, schedule: Q04DX003 (ip), vehicle: Klucel (hydroxypropylcellulose) (HPC) 96 % of control

CCn1c2ccccc2c2cc(NC(N)=S)ccc21
inactive: [1] 100 % of control | [2] 102 % of control | [3] 100 % of control and 98 % of control

CC1CN1P1(N2CC2C)=NP(N2CC2C)(N2CC2C)=NP(N2CC2C)(N2CC2C)=N1 (configuration not stated)
inactive: dose: 12.5 mg/kg/injection, schedule: Q04DX003 (ip), vehicle: saline 100 % of control | dose: 25.0 mg/kg/injection, schedule: Q04DX003 (ip), vehicle: saline 112 % of control | [6] 102 % of control | [7] 90 % of control
active: dose: 25.0 mg/kg/injection, schedule: Q01DX009 (ip), vehicle: saline 154 % of control | dose: 33.0 mg/kg/injection, schedule: Q01DX009 (ip), vehicle: saline with Tween-80 154 % of control | [4] 170 % of control and 193 % of control | [5] 172 % of control | dose: 66.0 mg/kg/injection, schedule: Q04DX003 (ip), vehicle: saline 154 % of control | dose: 75.0 mg/kg/injection, schedule: Q01DX009 (ip), vehicle: saline with Tween-80 218 % of control | dose: 100.0 mg/kg/injection, schedule: Q04DX003 (ip), vehicle: saline 181 % of control

COc1cc(NC(C)CCCN)c2ncccc2c1Oc1ccc(Cl)cc1 (configuration not stated)
inactive: dose: 12.5 mg/kg/injection, schedule: Q01DX009 (ip), vehicle: saline with Tween-80 91 % of control | [8] 90 % of control | [4] 94 % of control

O=C(Cc1ccccc1)Nc1ncc([N+](=O)[O-])s1
inactive: [9] 116 % of control | [10] 106 % of control | [11] 100 % of control

Cc1ncc(COP(=O)(O)O)c(C2NC(C(=O)O)CS2)c1O (configuration not stated)
inactive: [12] 115 % of control | [13] 92 % of control | [14] 107 % of control | [15] 94 % of control | [16] 113 % of control | [17] 91 % of control

N=C1CCC(=N)c2c1c(O)c1ccccc1c2O
inactive: dose: 6.25 mg/kg/injection, schedule: Q01DX005 (ip), vehicle: saline with Tween-80 94 % of control | [1] 104 % of control | [2] 94 % of control

O=c1cc2n(c(=O)n1Cc1ccccc1)CCC2
inactive: [1] 97 % of control | [2] 99 % of control | [3] 101 % of control

C=CCCc1cc(OC)ccc1C(=O)C(C)C
inactive: dose: 25.0 mg/kg/injection, schedule: Q01DX009 (ip), vehicle: Klucel (hydroxypropylcellulose) (HPC) 100 % of control | [3] 99 % of control | [9] 104 % of control | [18] 107 % of control | [10] 102 % of control | [19] 100 % of control | [11] 104 % of control

NC(CSSCC(N)C(=O)NC(Cc1ccc(O)cc1)C(=O)O)C(=O)NC(Cc1ccc(O)cc1)C(=O)O (stereo not drawn) (I: H-Cys-Tyr-OH / II: H-Cys-Tyr-OH; disulfide I:1-II:1; configuration not given here)
inactive: [12] 110 % of control | [14] 111 % of control | [16] 103 % of control

CCN(CC)C(=O)c1cc(OC)c(C(=O)N(CC)CC)cc1OC
inactive: [20] 100 % of control | [21] 108 % of control | dose: 240.0 mg/kg/injection, schedule: Q01DX005 (ip), vehicle: saline with Tween-80 101 % of control

Cc1cc2c(cc1C)Nc1oc3ccc4ccccc4c3c(=O)c1C=N2
inactive: dose: 6.25 mg/kg/injection, schedule: Q01DX005 (ip), vehicle: Klucel (hydroxypropylcellulose) (HPC) 104 % of control | dose: 12.5 mg/kg/injection, schedule: Q01DX005 (ip), vehicle: Klucel (hydroxypropylcellulose) (HPC) 99 % of control | dose: 25.0 mg/kg/injection, schedule: Q01DX005 (ip), vehicle: Klucel (hydroxypropylcellulose) (HPC) 96 % of control | [22] 89 % of control

Nc1cc(N)n(C2=NCCN2)n1
inactive: [13] 104 % of control | [15] 104 % of control | [17] 98 % of control

OC(CC1(O)C(F)(F)C(F)(F)C1(F)F)c1ccccc1 (configuration not stated)
inactive: dose: 100.0 mg/kg/injection, schedule: Q04DX003 (ip), vehicle: saline with Tween-80 100 % of control | dose: 200.0 mg/kg/injection, schedule: Q04DX003 (ip), vehicle: saline with Tween-80 90 % of control

O=C(NC(=O)C(F)(F)C(F)(F)C(F)(F)F)Nc1ccc(F)c(Cl)c1
inactive: [4] 107 % of control | [6] 99 % of control | dose: 200.0 mg/kg/injection, schedule: Q01DX009 (ip), vehicle: saline with Tween-80 105 % of control

O=CC(C(=O)c1ccccc1[N+](=O)[O-])c1ccccc1 (configuration not stated)
inactive: [23] 89 % of control | [24] 104 % of control | [22] 98 % of control

C=Cn1c([N+](=O)[O-])cnc1/C=C/c1ccc(C(=O)NC(C)CC)cc1 (configuration not stated)
inactive: dose: 100.0 mg/kg/injection, schedule: Q04DX002 (ip), vehicle: gum acacia 93 % of control | dose: 200.0 mg/kg/injection, schedule: Q04DX002 (ip), vehicle: gum acacia 91 % of control | dose: 400.0 mg/kg/injection, schedule: Q04DX002 (ip), vehicle: gum acacia 96 % of control

Clc1ncnc2c1ncn2C1C=CC=CC=C1
inactive: [23] 90 % of control | [24] 92 % of control | [22] 91 % of control

Clc1ccc(Nc2nnc(-c3ccc4c(c3)OCO4)o2)cc1
inactive: [23] 93 % of control | [24] 101 % of control | [22] 93 % of control

Cc1cc(OC(=O)c2c(-c3ccccc3)noc2C)n(-c2ccc(NC(=O)c3c(-c4ccccc4)noc3C)cc2)n1
inactive: [5] 96 % of control | [7] 100 % of control | [25] 101 % of control

O=c1/c(=C/c2ccc(Cl)cc2)sc2nc(-c3ccccc3)nn12
inactive: [9] 94 % of control | [10] 95 % of control | [11] 101 % of control

O=C(Nc1cccc([N+](=O)[O-])c1)OCc1ccc2c(c1)OCO2
inactive: [20] 91 % of control | [21] 90 % of control

CCNCC(=O)Nc1ccc2c(c1)C(=O)c1ccc(NC(=O)CNCC)cc1C2=O
inactive: dose: 25.0 mg/kg/injection, schedule: Q04DX002 (ip), vehicle: saline with Tween-80 100 % of control | dose: 50.0 mg/kg/injection, schedule: Q04DX002 (ip), vehicle: saline with Tween-80 110 % of control | dose: 100.0 mg/kg/injection, schedule: Q04DX002 (ip), vehicle: saline with Tween-80 102 % of control | dose: 200.0 mg/kg/injection, schedule: Q04DX002 (ip), vehicle: saline with Tween-80 108 % of control and 93 % of control

COc1ccc(C(C)=O)cc1CS/C(=N/S(=O)(=O)c1ccccc1)Nc1cccc(Cl)c1Cl
inactive: [9] 101 % of control | [10] 101 % of control | [11] 98 % of control

O=C(C[n+]1cccc2ccccc21)c1ccc(F)cc1
inactive: [9] 119 % of control | [10] 97 % of control | [11] 91 % of control

CC1(C)C(=O)C(C)(C)C1O
inactive: [5] 98 % of control | [7] 95 % of control | [25] 98 % of control

Cc1c2ccccc2c(C)c2c1cc(C(=O)O)c1ccccc12
inactive: [2] 113 % of control | [3] 113 % of control and 116 % of control | [19] 124 % of control

O=C(NC(Cc1ccc(O)cc1)C(=O)NC(Cc1ccccc1)C(=O)O)OCc1ccccc1 (stereo not drawn) (Cbz-Tyr-Phe-OH; configuration not given here)
inactive: [3] 102 % of control | [18] 106 % of control | [19] 104 % of control

O=C(O)c1cc2c(Cl)cccc2[nH]1
inactive: [8] 90 % of control | [4] 90 % of control | [6] 90 % of control
